We go through one compound from ChEMBL document CHEMBL5512671, “Structure-Based Optimization of Novel Sterol 24-C-Methyltransferase Inhibitors for the Treatment of Candida albicans Infections” (J Med Chem, 2024).

Calls of active or inactive are those of the source. No cut-off for these calls is given here.

For data set [1], the system named is Candida albicans. The experiment in a line: Synergistic antifungal activity against Candida albicans SC5314 assessed as inhibition of fungal growth incubated for 24 hrs in presence of tridemorph by broth microdilution checkerboard assay. Format: functional.
The test system of data set [2] is Candida albicans. The experiment in a line: Upregulation of PDE2 gene level in Candida albicans SC5314 at 1 ug/ml incubated for 6 hrs by qPCR analysis. It counts as functional. Particulars: dose 1.0 µg/ml. For orientation: In qPCR the cycle at which signal appears reflects the starting amount.
Data set [3] concerns Candida albicans. Description: Synergistic antifungal activity against Candida albicans SC5314 assessed as fractional inhibitory concentration index incubated for 24 hrs in presence of tridemorph by broth microdilution checkerboard assay. It counts as functional. (In general: Dilution methods test growth across graded concentrations, often in twofold steps.)
Data set [4] deals with [Candida] auris. The experiment in a line: Antifungal activity against Candida auris CBS12774 assessed as inhibition of fungal growth incubated for 24 hrs by CLSI protocol based broth microdilution method. It counts as functional. To be noted: Candidozyma auris.
Data set [5] has as its target T1, Sterol 24-C-methyltransferase (Candida albicans (strain SC5314 / ATCC MYA-2876) (Yeast), UniProt O74198).
T1 sequence (O74198 whole entry): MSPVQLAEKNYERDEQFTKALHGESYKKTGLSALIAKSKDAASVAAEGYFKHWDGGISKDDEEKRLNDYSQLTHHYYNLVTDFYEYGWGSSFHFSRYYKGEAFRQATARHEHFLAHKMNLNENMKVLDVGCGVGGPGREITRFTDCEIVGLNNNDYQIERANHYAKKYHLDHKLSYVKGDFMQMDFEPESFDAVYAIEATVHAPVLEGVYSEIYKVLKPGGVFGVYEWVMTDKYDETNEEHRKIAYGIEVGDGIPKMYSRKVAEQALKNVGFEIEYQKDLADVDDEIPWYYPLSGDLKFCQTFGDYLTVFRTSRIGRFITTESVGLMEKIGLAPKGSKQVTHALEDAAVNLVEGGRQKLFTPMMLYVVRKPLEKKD
Description: Inhibition of recombinant Candida albicans SC5314 Erg6 methyltransferase activity using zymosterol as substrate incubated for 15 mins followed by substrate addition by liquid scintillation counter analysis.

The test system of data set [6] is Candida albicans. Description: Antifungal activity against Candida albicans SC5314 assessed as inhibition of hyphae growth measured after 5 days cultured under YPD embedded agar medium and 10mM GlcNAc by microscopy based analysis. Format: functional, organism-based. To be noted: dose 0.25-1 µg/ml, time 5.0 day.
Data set [7] concerns Candida albicans. The experiment in a line: Antifungal activity against Candida albicans CAI4/pBA1-ERG6 assessed as inhibition of hyphae growth incubated for 24 hrs by CLSI protocol based broth microdilution method. It counts as functional, organism-based.
The test system of data set [8] is Candida albicans. The experiment in a line: Inhibition of cell adhesion in Candida albicans SC5314 to human HGE cells measured after 90 mins by fluorescence microscopy based analysis. Format: functional. Particulars: dose 0.5-2 µg/ml.
The test system of data set [9] is Candida parapsilosis. Description: Antifungal activity against Candida parapsilosis CP1 assessed as effect on cell size at 1 ug/ml measured after 6 hrs by microscopy based analysis. Particulars: dose 1.0 µg/ml. Format: functional, organism-based.
Data set [10] has as its system Candida albicans. The experiment in a line: Antifungal activity against Candida albicans SC5314 infected in Balb/C mouse candidiasis model assessed as appearance of inflammatory infiltrates at 0.5 % administered topically and measured after 72 hrs by H and E staining based analysis. Format: functional, organism-based.
The next data set has as its system Nakaseomyces glabratus. The experiment in a line: Antifungal activity against Candida glabrata CG2 assessed as effect on cell structure at 1 ug/ml measured after 6 hrs by microscopy based analysis. Format: functional, organism-based. To be noted: dose 1.0 µg/ml.
Data set [11] concerns [Candida] auris. Description: Antifungal activity against Candida auris CBS12774 assessed as inhibition of hyphae formation at 1 ug/ml measured after 6 hrs by microscopy based analysis. It counts as functional, organism-based. Particulars: Candidozyma auris, dose 1.0 µg/ml.
A short description of data set [12]: Cytotoxicity against human HUVEC cells incubated for 48 hrs by CCK-8 method. Format: toxicity, cell-based.
In data set [13] the test system is Candida albicans. The experiment in a line: Downregulation of ECE1 expression in Candida albicans SC5314 at 1 ug/ml incubated for 6 hrs by qPCR analysis. Format: functional. To be noted: dose 1.0 µg/ml.
Data set [14] concerns Candida parapsilosis. Description: Antifungal activity against Candida parapsilosis CP1 assessed as inhibition of fungal growth incubated for 24 hrs by CLSI protocol based broth microdilution method. Format: functional. To be noted: Lodderomyces parapsilosis.
For data set [15], the system named is Candida albicans. Description: Antifungal activity against Candida albicans SC5314 assessed as inhibition of fungal growth incubated for 24 hrs by CLSI protocol based broth microdilution method. Format: functional.
A short description of data set [16]: Cytotoxicity against human BEAS-2B cells incubated for 48 hrs by CCK-8 method. Format: toxicity, cell-based. Background: Tetrazolium dyes change colour on reduction, which living cells bring about.
The subject of data set [17] is Candida albicans. The experiment in a line: Antifungal activity against Candida albicans SC5314 assessed as inhibition of hyphae growth measured after 6 hrs cultured under RPMI1640 medium/5% serum by microscopy based analysis. It counts as functional, organism-based. To be noted: dose 0.25-1 µg/ml.
The test system of data set [18] is Candida albicans. The experiment in a line: Antifungal activity against Candida albicans SC5314 assessed as inhibition of hyphae growth incubated for 24 hrs by CLSI protocol based broth microdilution method. It counts as functional.
The subject of data set [19] is [Candida] auris. The experiment in a line: Antifungal activity against Candida auris CBS12774 assessed as effect on cell structure at 1 ug/ml measured after 6 hrs by microscopy based analysis. Format: functional, organism-based. Particulars: Candidozyma auris, dose 1.0 µg/ml.
The test system of data set [20] is Candida albicans. Description: Upregulation of NRG1 expression in Candida albicans SC5314 at 1 ug/ml incubated for 6 hrs by qPCR analysis. It counts as functional. Particulars: dose 1.0 µg/ml.
In data set [21] the test system is Candida albicans. The experiment in a line: Antifungal activity against Candida albicans SC5314 assessed as inhibition of hyphae growth measured after 5 days cultured under solid spider agar medium and 10mM GlcNAc by microscopy based analysis. Format: functional, organism-based. To be noted: dose 0.25-1 µg/ml, time 5.0 day.

In the case of `Cc1c(-n2c(-c3ccc4ccccc4c3)cs/c2=N\c2ccccc2)c(=O)n(-c2ccccc2)n1C`, the MIC80 (as a rule, an inhibitory concentration at the 80% level, which refers to growth in some studies and to a panel of isolates in others) in the data set with Candida albicans [1] was 1 mg/L; in the data set on Candida albicans [15] it was greater than 128 mg/L. For the same compound, the outcome (in the data set on Candida albicans [2]; in the data set on Candida albicans [7]; in the data set with Candida albicans [10]; in data set [Candida] auris [11]; in the data set on Candida albicans [13]; with Candida albicans [20]) was Active. Besides, the “fractional inhibitory concentration index (FICI)” value in the data set on Candida albicans [3] was less than 0.1. Also, the MIC (in [Candida] auris [4]; in the data set on Candida parapsilosis [14]) was greater than 128 mg/L each time. Moreover, in [5], the half-inhibitory concentration (IC50) (as a rule, the concentration that gives 50% inhibition) turned out to be 0.273 µM. Further, the Activity result with Candida albicans [6], with Candida albicans [17] and in the data set on Candida albicans [21] was “Dose-Dependent Effect” each time. In the data set on Candida albicans [8], the inhibition entry is “Dose-Dependent Effect”. The outcome (in the data set on Candida parapsilosis [9]; in the data set on Nakaseomyces glabratus; in data set [Candida] auris [19]) was inactive. The EC50 at 48 h in data set [12] and in data set [16] was greater than 50 mg/L each time. Also, the MIC50 (in general, an inhibitory concentration at the 50% level, which refers to growth in some studies and to a panel of isolates in others) in the data set with Candida albicans [18] is greater than 128 mg/L.
